The source of these data is paper PMC3784060 (Cancer Chemotherapy and Pharmacology, 2013).

Read-outs that look alike come from different tables or passages of the source.

The subject of test [1] is relapsed/refractory AML and ALL. Description: phase II study in acute leukemia: response, blast/WBC reduction, time to progression. It is filed as in vivo, human. On the procedure: Each cycle lasted 21 days. Patient could continue treatment on the study in the absence of disease progression or unacceptable toxicity. The next cycle of therapy could start if non-hematologic toxicity from previous cycle recovered to ≤grade 1, and dose delay of up to 3 weeks was allowed for recovery. Permanent dose reduction was required for any ≥grade 3 clinically significant non-hematologic adverse event (70 mg/m^2 → 50 mg/m^2; 50 mg/m^2 → 40 mg/m^2; 40 mg/m^2 → 30 mg/m^2; 30 mg/m^2 → discontinue). To allow for continued treatment of subjects whose cytopenias were due to leukemia and not due to drug toxicity, subsequent cycles of treatment were allowed if absolute neutrophil count (ANC) ≥0.5 × 10^9/L or for ANC <0.5 × 10^9/L but no more than 20 % below the baseline pretreatment levels and platelet count ≥20 × 10^9/L or platelets <20 × 10^9/L but no more than 20 % below the baseline pretreatment levels. Anti-emetic prophylaxis including serotonin-receptor antagonist, metoclopramide, or prochloperazine with or without dexamethasone was allowed. […] Dexamethasone 20 mg IV was given early if symptoms of cytokine release syndrome were observed.
Response was assessed by bone marrow (BM) examination on day 21 of cycles 1 and 2, and every 6 weeks thereafter until complete remission or progressive disease (PD). Response was determined according to the revised recommendations of the International Working Group (IWG) for AML [33]. Toxicities were graded according to the National Cancer Institute Common Terminology Criteria for Adverse Events (NCI CTCAE), version 3.0 (http://ctep.cancer.gov/protocolDevelopment/electronic_applications/docs/ctcaev3.pdf). Hematologic and chemistry profiles were monitored on day 1 and 2 of each cycle or until resolution of acute toxicities and subsequently at least once a week or more frequently depending on the individual patient’s needs.
The primary efficacy endpoint of the study was the ORR, including complete remission (CR), CR with incomplete count recovery (CRi), and partial remission.

Test [2] has as its system acute leukemia (WBC count). As to conditions: cited from earlier work.
Setting [3] is: AML patients, all treated subjects.

For the compound “gemtuzumab ozogamicin [Mylotarg (GO), reference compound]”, in test [1] (setting [3]), the “Beta Posterior Mean (Bayes estimate of the response rate)” value is listed as 0.167, the “Number of Non-responders” value was found to be 7, the “Number of Responders” value worked out at 1 and the “Posterior Probability (This treatment is better)” value is given as 0.801. Also, in test [1] (AML patients, all treated subjects, frequentist approach), the “Observed Response Rate (%)” value was 12.500%. In test [1] (all treated AML patients), the “Median time to progression, Estimate” value is on record as 7.57 weeks and the “Number of Events (progression)” value worked out at 7. In addition, the “Hazard Ratio, Estimate (Mylotarg/Dinaciclib)” value in test [1] (time to progression, all treated AML patients) is 0.71.
Turning to `CN1CC[C@H](c2c(O)cc(O)c3c(=O)cc(-c4ccccc4Cl)oc23)[C@H](O)C1` [flavopiridol], the “patients with >50 % decrease in WBC count” value is recorded as around 44% in test [2] (1-h bolus for 3 days) and “approximately 83%” in test [2] (hybrid schedule for 3 days).
